{
  "source": "paper PMC6754133",
  "about": "(PLoS ONE, 2019)",
  "key": {"[1]": {"tested_on": "firefly luciferase under control of cAMP response element (CRE)", "test": "CRE-luciferase counter assay in HEK293s cells", "type": "cell-based", "settings": "different concentrations", "experimental": "(a) The drugs were tested at different concentrations in HEK293s cells stably transfected with firefly luciferase under control of cAMP response element (CRE) (pGL4.29[luc2P/CRE/Hygro], Promega). […] Raw, non-normalized luminescence values are presented, to facilitate the assessment of the extent of inhibition. Shown is a single representative experiment out of the multiple experiments performed on different days. (Mean ± SD)"}, "mSMO": {"biological_target": "T1, mSMO (Mus musculus, UniProt P56726)", "T1 construct": "host or cells: HEK293T", "T1 sequence (P56726 33-793)": "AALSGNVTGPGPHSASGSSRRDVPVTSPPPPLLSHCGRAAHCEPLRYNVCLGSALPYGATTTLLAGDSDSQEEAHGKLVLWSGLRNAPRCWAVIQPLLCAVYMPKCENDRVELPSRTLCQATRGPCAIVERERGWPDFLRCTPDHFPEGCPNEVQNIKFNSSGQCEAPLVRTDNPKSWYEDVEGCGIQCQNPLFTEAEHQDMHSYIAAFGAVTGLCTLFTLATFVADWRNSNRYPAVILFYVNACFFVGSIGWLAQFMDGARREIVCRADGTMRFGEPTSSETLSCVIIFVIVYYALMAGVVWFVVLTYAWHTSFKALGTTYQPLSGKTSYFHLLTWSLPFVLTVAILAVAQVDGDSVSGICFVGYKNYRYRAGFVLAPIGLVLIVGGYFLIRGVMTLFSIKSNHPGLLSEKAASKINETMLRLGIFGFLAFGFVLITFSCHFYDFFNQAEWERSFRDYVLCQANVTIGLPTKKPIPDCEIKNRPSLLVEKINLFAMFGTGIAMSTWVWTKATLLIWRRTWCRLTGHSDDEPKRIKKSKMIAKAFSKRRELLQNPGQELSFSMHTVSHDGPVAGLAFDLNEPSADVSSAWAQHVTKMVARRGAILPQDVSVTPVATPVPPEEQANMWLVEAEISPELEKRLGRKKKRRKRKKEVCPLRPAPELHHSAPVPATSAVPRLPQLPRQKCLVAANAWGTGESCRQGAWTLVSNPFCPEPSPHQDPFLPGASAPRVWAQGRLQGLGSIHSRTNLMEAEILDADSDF", "test": "BODIPY-Cyclopamine competition binding assay, flow cytometry, HEK293T cells transiently transfected with mSMO", "settings": "BODIPY-Cyclopamine 5 nM", "experimental": "Prior to transfection, cell culture media was replaced with DMEM + 10%FBS for mSMO transfection and with DMEM + 10%BCS for ShhN transfection. The transfected dish was incubated for approximately 24 hours at 37°C. For the production of ShhN conditioned medium, the culture medium from ShhN-transfected HEK293T cells was collected, aliquoted in single use 1.5 mL Eppendorf tubes and either used fresh or stored at -20°C.\nHEK293T cells transiently transfected with mSMO were lifted with trypsin (0.25%) and replated at 6×10^4 cells in 80 μL DMEM + 10%FBS per well in a 96 well tissue-culture treated plate (Falcon, 353219). The plate was incubated at 37°C for 24 hours. Serial dilutions of test compounds (10x final concentrations) were prepared in culture media. 10 μL of diluted compounds or control media were added to the plate after which the plate was incubated at 37°C for 10 min. […] Following at least 1.5 hours incubation at 37°C in 5% CO2, cells were lifted by vigorous pipetting, transferred to conical bottom 96-well plates, and centrifuged at 400 × g for 5 min at 4°C. Supernatant was discarded, cells were re-suspended in 300 μL of PBS + 0.5% BSA (freshly prepared), and the plate was analyzed with Guava benchtop flow cytometer. The results were interpreted with FlowJo software (version v10.1). Dose response curves were constructed in Prism 6 (GraphPad Software, La Jolla, CA)."}, "MB-PDX cells": {"tested_on": "MB-PDX cells", "test": "cells", "settings": "Homo sapiens, 72 h, read-out: Cell viability assay IC50"}, "[2]": {"tested_on": "Gli-1 mRNA in Math1-Cre; ptch1-flox/flox cells", "test": "qRT-PCR of Gli-1 mRNA in Math1-Cre; ptch1-flox/flox (PTCH -/-) cells treated ex vivo", "type": "cell-based, mouse", "settings": "10 μM ex vivo, 24 hours", "experimental": "An in vivo medulloblastoma model was established as described before. Briefly, 6–7 weeks old NOD-scid IL-2Rg null (NSG) mice (the Jackson Laboratory) were anesthetized with xylazine-ketamine, and […]. Dissociated Math1-Cre; ptch1-flox/flox cells (1×10^6 cells in 4 μL HBSS)[58] were injected into the mouse brains using murine stereotaxic system (Stoelting Co). The coordinates were: 1.8mm to the right of bregma and 3mm deep from the dura. To disassociate the orthotopic tumor into the single cells for the serial implantation or the ex-vivo experiment, the tumor was dissected from the cerebellum, followed by digestion using Papain (10 U per mL), DNase (250 U) and L-cystein (2 mg) at 37°C for 30 min.\nBoth post-vivo MB-PDX cells and Math1-Cre; ptch1-flox/flox cells were analyzed for Gli-1 mRNA expression. For that, total RNA was extracted from dissociated single cells using QIAGEN RNease Mini Kit and cDNA was prepared using 1μg RNA with iScript cDNA Synthesis Kit (Bio-Rad). SYBR green-based QPCR was performed using murine primers listed as below (GLI1, Forward 5’- […]-3’, Reverse 5’-[…]-3’, GAPDH Forward 5'-[…] -3', Reverse 5'-[…]-3'). mRNA levels were normalized to GAPDH (dCt = Ct gene of interest–Ct GAPDH) and reported as relative mRNA expression (ddCt = 2-^(dCt sample–dCt control)) in fold change."}},
  "data": [
    {"smiles": "Cc1cn(-c2cc(NC(=O)c3ccc(C)c(Nc4nccc(-c5cccnc5)n4)c3)cc(C(F)(F)F)c2)cn1", "note": "[Nilotinib]", "values": [
      {"measurement": "Effect on CRE-driven luciferase activity (independent of SMO)", "setting": "[1]", "value": "lack of dose-dependent effect"},
      {"measurement": "Displacement of BODIPY-Cyclopamine from SMO (in words)", "setting": "mSMO", "value": "displace BODIPY-Cyclopamine"},
      {"measurement": "IC50", "setting": "mSMO; HEK293T cells transfected with mSMO, n = 2, estimated, read-out: SMO binding IC50", "value": 3.11, "unit": "µM"},
      {"measurement": "IC50", "setting": "MB-PDX cells", "value": 5, "unit": "µM"},
      {"measurement": "Gli-1 mRNA expression versus vehicle treated cells", "setting": "[2]", "value": "significant reduction in Gli-1 mRNA expression"}
    ]}
  ]
}
